Results from ChEMBL document CHEMBL1128841, “Purification of pig and rat liver squalene epoxidase by affinity chromatography” (Bioorg Med Chem Lett, 1995).

Target: Squalene monooxygenase (Rattus norvegicus, UniProt P52020)
Experiment: The compound was tested for its inhibitory activity against rat Squalene epoxidase

Chain of Squalene monooxygenase (P52020 whole entry): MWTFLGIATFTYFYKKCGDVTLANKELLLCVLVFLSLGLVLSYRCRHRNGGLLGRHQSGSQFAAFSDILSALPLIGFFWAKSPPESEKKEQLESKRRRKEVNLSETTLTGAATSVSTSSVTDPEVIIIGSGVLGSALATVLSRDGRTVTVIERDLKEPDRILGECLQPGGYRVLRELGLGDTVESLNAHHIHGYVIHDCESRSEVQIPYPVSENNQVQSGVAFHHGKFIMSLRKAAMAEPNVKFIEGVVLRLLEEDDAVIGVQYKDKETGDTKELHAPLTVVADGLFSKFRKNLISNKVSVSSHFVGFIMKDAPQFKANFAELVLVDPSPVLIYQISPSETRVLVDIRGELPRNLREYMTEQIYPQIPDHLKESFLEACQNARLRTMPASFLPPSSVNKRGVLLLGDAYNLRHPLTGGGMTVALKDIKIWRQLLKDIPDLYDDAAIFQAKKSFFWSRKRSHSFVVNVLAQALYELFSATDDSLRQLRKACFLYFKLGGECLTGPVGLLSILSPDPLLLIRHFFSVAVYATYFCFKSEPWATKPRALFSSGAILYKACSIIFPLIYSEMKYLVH

IC50: 1000 nM
SMILES: CNCCC/C(C)=C/CC/C(C)=C/CC/C=C(\C)CC/C=C(\C)CCCNCCCCCCN
